Source: patent US20090298843A1, “TREATMENT OF HEMATOLOGICAL MALIGNANCIES WITH FTS AND A BCR-ABL TYROSINE KINASE INHIBITOR” (RAMOT AT TEL AVIV UNIVERSITY LTD., priority 2006, published 2009)

How the values were obtained:
[1] = tested on: K562 cells (Human, CML); experiment: FACS analysis of propidium iodide stained cells (cell cycle distribution, sub-G1); assay type: cell-based; conditions: for cells in sub-G1: 48 h
Method: Third, a FACS analysis was performed. Cells were plated at a density of 50,000 cells per ml in 10 cm plates for fluorescence-activated cell-sorting (FACS) analysis of propidium iodide stained cells. […] Forty-eight hours (48 h) later, propidium iodide mixed with 1% Triton X-100 was added to the cells, and the cell cycle distribution of the cells was assessed using a FACS machine.
[Gambacorti-Passerini, C., le Coutre, P., Mologni, L., Fanelli, M., Bertazzoli, C., Marchesi, E., Di Nicola, M., Biondi, A., Corneo, G. M., Belotti, D., Pogliani, E., Lydon, N. B., Blood Cells Mol Dis. 23(3):380-94 (1997)].

[2] = tested on: 697 cells (Human T-cell leukemia, ALL); experiment: Cell growth inhibition assay, FTS alone (direct cell count); assay type: cell-based; conditions: for cell number in FTS-treated cells as a percentage of controls (avg): counted 48 h after addition
From the text: (§1) The following cell lines were examined, representing Acute Myeloid Leukemia (AML), Acute Lymphoblastic Leukemia (ALL), and Chronic Myeloid Leukemia (CML): 1. CEM (Human T-cell leukemia, ALL) 2. HSB-2 (Human T-cell leukemia, ALL) carrying the t(1; 7) (p34; q34) involving the lck and tcrb genes and a submicroscopic del(1)(p32) leading to the Sil-Scl fusion gene 3. 697 (Human T-cell leukemia, ALL) 4. Raji (Human Burkitt's lymphoma) with overexpression and mutation in the c-Myc gene 5. U-937 (Human histiocytic lymphoma, AML) 6. HL-60 (AML) 7. K562 (Himan, CML) with a b3-a2 fusion gene to create the Bcr-Abl chimeric oncoprotein.
(§2) Cells were grown at 37° C. in RPMI containing 5% FCS, 100 μg/mL streptomycin, and 100 units/mL penicillin and maintained in a humidified atmosphere of 95% air/5% CO2. […] Each experiment tin quadruplicate) was performed at least two times.

[3] = tested on: CEM cells (Human T-cell leukemia, ALL); experiment: as above; assay type: cell-based; conditions: for cell number in FTS-treated cells as a percentage of controls (avg): CEM, counted 48 h after addition
From the text: as §1, §2

[4] = tested on: Raji cells (Human Burkitt's lymphoma); experiment: as above; assay type: cell-based; conditions: for cell number in FTS-treated cells as a percentage of controls (avg): counted 48 h after addition
From the text: as §1, §2

[5] = tested on: U-937 cells (Human histiocytic lymphoma, AML); experiment: as above; assay type: cell-based; conditions: U937; for cell number in FTS-treated cells as a percentage of controls (avg): counted 48 h after addition
From the text: as §1, §2

[6] = tested on: K562 cells (Human, CML); experiment: as above; assay type: cell-based; conditions: for cell number in FTS-treated cells as a percentage of controls (avg): counted 48 h after addition
From the text: as §1, §2

[7] = tested on: HSB-2 cells (Human T-cell leukemia, ALL); experiment: as above; assay type: cell-based; conditions: for cell number in FTS-treated cells as a percentage of controls (avg): HSB, counted 48 h after addition
From the text: as §1, §2

[8] = Phase-I open-label study of FTS in human patients with advanced hematologic malignancies; assay type: in vivo; conditions: for ANC, baseline level / HGB, baseline level / PLT, baseline level: before treatment
Method: One human patient with advanced myelodysplastic syndrome (MDS) refractory to chemotherapy was treated with FTS, at a dose of 200 b.i.d. (400 mg daily), administered on days 1 to 21 of a 28 day cycle. […] The results are graphically depicted in FIG. 7 and in Table 3 (below). Five human patients with advanced myelodysplastic syndrome (MDS), acute myelogenous leukemia (AML), or chronic myelogenous leukemia (CML) refractory to chemotherapy were treated with FTS at doses of 200 to 600 mg b.i.d. (400 to 1200 mg daily) administered on days 1 to 21 of a 28 day cycle. […]

[9] = tested on: HL-60 cells (AML); experiment: Cell growth inhibition assay, FTS alone (direct cell count); assay type: cell-based, Human; conditions: for cell number in FTS-treated cells as a percentage of controls (avg): counted 48 h after addition
From the text: as §1, §2

[10] = tested on: seven leukemia cell lines (CEM, HSB-2, 697, Raji, U-937, HL-60, K562); experiment: Cell growth inhibition assay, FTS alone, summary over the seven cell lines; assay type: cell-based, Human
From the text: as §1, §2

[11] = Homo sapiens, read-out: IC50 for FTS inhibition of leukemia cell growth
[12] = person one, AML, FTS 400 mg b.i.d.
[13] = person two, AML, FTS 400 mg b.i.d.
[14] = person, MDS, FTS 200 b.i.d., days 1 to 21 of a 28 day cycle

## Cc1ccc(NC(=O)c2ccc(CN3CCN(C)CC3)cc2)cc1Nc1nccc(-c2cccnc2)n1 [GLEEVEC, reference compound]
[1]; GLEEVEC only, 200 nM
  cells in sub-G1: 13%

## CC(C)=CCC/C(C)=C/CC/C(C)=C/CSc1ccccc1C(=O)O [FTS, farnesylthiosalicylic acid]
[2]; FTS 12.5 uM
  cell number in FTS-treated cells as a percentage of controls (avg): 27%
[2]; FTS 25 uM
  cell number in FTS-treated cells as a percentage of controls (avg): 44%
[2]; FTS 50 uM
  cell number in FTS-treated cells as a percentage of controls (avg): 34%
[2]; FTS 75 uM
  cell number in FTS-treated cells as a percentage of controls (avg): 4%
[2]; FTS 100 uM
  cell number in FTS-treated cells as a percentage of controls (avg): 2%
[2]; Homo sapiens, T-cell
  IC50: 25 µM
[3]; FTS 12.5 uM
  cell number in FTS-treated cells as a percentage of controls (avg): 89%
[3]; FTS 25 uM
  cell number in FTS-treated cells as a percentage of controls (avg): 78%
[3]; FTS 50 uM
  cell number in FTS-treated cells as a percentage of controls (avg): 71%
[3]; FTS 75 uM
  cell number in FTS-treated cells as a percentage of controls (avg): 32%
[3]; FTS 100 uM
  cell number in FTS-treated cells as a percentage of controls (avg): 12%
[3]; Homo sapiens, CCRF-CEM
  IC50: 50 µM
[4]; FTS 6.25 uM
  cell number in FTS-treated cells as a percentage of controls (avg): 63%
[4]; FTS 12.5 uM
  cell number in FTS-treated cells as a percentage of controls (avg): 61%
[4]; FTS 25 uM
  cell number in FTS-treated cells as a percentage of controls (avg): 33%
[4]; FTS 50 uM
  cell number in FTS-treated cells as a percentage of controls (avg): 24%
[4]; FTS 75 uM
  cell number in FTS-treated cells as a percentage of controls (avg): 11%
[4]; FTS 100 uM
  cell number in FTS-treated cells as a percentage of controls (avg): 5%
[4]; [11]
  IC50: 20 µM
[5]; Homo sapiens, U-937, read-out: IC50 for FTS inhibition of leukemia cell growth
  IC50: 70 µM
[5]; FTS 12.5 uM
  cell number in FTS-treated cells as a percentage of controls (avg): 104%
[5]; FTS 25 uM
  cell number in FTS-treated cells as a percentage of controls (avg): 82%
[5]; FTS 50 uM
  cell number in FTS-treated cells as a percentage of controls (avg): 82%
[5]; FTS 75 uM
  cell number in FTS-treated cells as a percentage of controls (avg): 32%
[5]; FTS 100 uM
  cell number in FTS-treated cells as a percentage of controls (avg): 9%
[6]; FTS 6.25 uM
  cell number in FTS-treated cells as a percentage of controls (avg): 100%
[6]; FTS 12.5 uM
  cell number in FTS-treated cells as a percentage of controls (avg): 115%
[6]; FTS 25 uM
  cell number in FTS-treated cells as a percentage of controls (avg): 107%
[6]; FTS 50 uM
  cell number in FTS-treated cells as a percentage of controls (avg): 37%
[6]; FTS 75 uM
  cell number in FTS-treated cells as a percentage of controls (avg): 14%
[6]; FTS 100 uM
  cell number in FTS-treated cells as a percentage of controls (avg): 1%
[6]; [11]
  IC50: 50 µM
[7]; FTS 12.5 uM
  cell number in FTS-treated cells as a percentage of controls (avg): 88%
[7]; FTS 25 uM
  cell number in FTS-treated cells as a percentage of controls (avg): 53%
[7]; FTS 50 uM
  cell number in FTS-treated cells as a percentage of controls (avg): 38%
[7]; FTS 75 uM
  cell number in FTS-treated cells as a percentage of controls (avg): 22%
[7]; FTS 100 uM
  cell number in FTS-treated cells as a percentage of controls (avg): 4%
[7]; Homo sapiens, HSB2
  IC50: 25 µM
[1]; FTS 70 μM with GLEEVEC 200 nM
  sensitization of K562 cells to GLEEVEC: chemosensitized the K562 cells to GLEEVEC
[1]; FTS only, 70 μM
  cells in sub-G1: 8%
[8]; five patients, advanced MDS, AML or CML refractory to chemotherapy, 200 to 600 mg b.i.d., days 1 to 21 of a 28 day cycle
  lineage response (PLT, HGB or ANC) over the course of treatment: improvement in one lineage
[8]; one patient, advanced MDS refractory to chemotherapy, 200 b.i.d. (400 mg daily), days 1 to 21 of a 28 day cycle
  lineage response (PLT, HGB, ANC) over the course of treatment: improvement in three lineages
[8]; [12]
  ANC, best level observed: 4.503e+09 L⁻¹
  ANC, baseline level: 0.285 to × 10^9/L
[8]; [13]
  ANC, best level observed: 9.54e+08 L⁻¹
  ANC, baseline level: 0.144 to × 10^9/L
[8]; person, CML, FTS 600 mg b.i.d.
  HGB, best level observed: 11.4 g/dL
  HGB, baseline level: 9.3 to g/dL
[8]; person, MDS, FTS 200 mg b.i.d.
  PLT, best level observed: 5.4e+10 L⁻¹
  PLT, baseline level: 21 to × 10^9/L
[8]; person, MDS, FTS 400 mg b.i.d.
  HGB, best level observed: 10.4 g/dL
  HGB, baseline level: 9.7 to g/dL
[8]; [14]
  ANC, best level observed: 9.7e+08 L⁻¹
  HGB, best level observed: 12.7 g/dL
  PLT, best level observed: 1.05e+11 L⁻¹
  ANC, baseline level: 0.40 to × 10^9/L
  HGB, baseline level: 10.4 to g/dL
  PLT, baseline level: 53 to × 10^9/L
[9]; FTS 6.25 uM
  cell number in FTS-treated cells as a percentage of controls (avg): 76%
[9]; FTS 12.5 uM
  cell number in FTS-treated cells as a percentage of controls (avg): 69%
[9]; FTS 25 uM
  cell number in FTS-treated cells as a percentage of controls (avg): 82%
[9]; FTS 50 uM
  cell number in FTS-treated cells as a percentage of controls (avg): 67%
[9]; FTS 75 uM
  cell number in FTS-treated cells as a percentage of controls (avg): 31%
[9]; [11]
  IC50: 60 µM
[10]; Homo sapiens, seven leukemia cell lines, read-out: half maximal inhibitory concentration (IC50) values, range over the cell lines
  IC50: 20 to 70 µM
[10]; seven cell lines
  growth inhibition, result in words: inhibited growth of each of seven cell lines
